In assay [1] the target is T1, human recombinant kinase full-length AKT1 E17K (Homo sapiens, UniProt P31749, E17K).
T1 construct: Purified human recombinant kinase full-length AKT1 E17K was expressed in insect cells; made in house; host or cells: insect cells
Nature of the assay: AKT1 E17K kinase assay (TR-FRET, Lance). In kind it is biochemical. Conditions: 0.6 nM AKT1 E17K, 50 nM Ulight-CREBtide, either 50 μM ATP or 2 mM ATP, 60 min at RT. An outline of the steps:
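IC50 came from a 10-point, 4-parameter fit of the 665/620 TR-FRET ratio read with Eu-anti-phospho-CREB (Ser133). Reaction at RT for 60 min after 15 min compound preincubation, using 0.6 nM PDPK1-activated full-length AKT1 E17K (insect-cell), 50 nM Ulight-CREBtide, ATP at 50 μM or 2 mM, HEPES pH 7.5, 1% DMSO.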
On the technique in general: TR-FRET usually uses a lanthanide donor and a delayed reading to cut background.

The target in assay [2] is T2, human recombinant kinase full-length wildtype AKT1 (Homo sapiens, UniProt P31749).
T2 construct: Purified human recombinant kinase full-length wildtype AKT1 was expressed in insect cells; made in house; host or cells: insect cells
Nature of the assay: AKT1 kinase assay (wildtype, TR-FRET, Lance). The class given is biochemical. Particulars: 0.6 nM wildtype AKT1, 50 nM Ulight-CREBtide, either 50 μM ATP or 2 mM ATP, 60 min at RT. An outline of the steps:
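TR-FRET 665/620 ratio quantified phospho-CREBtide formed by PDPK1-activated full-length human AKT1 (0.6 nM, insect-cell-derived) over 60 min at RT with 50 nM ULight-CREBtide and either 50 μM or 2 mM ATP. Compounds were preincubated 15 min with enzyme; IC50 came from 4-parameter fits of 10-point duplicates.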

T2 sequence (P31749 whole entry): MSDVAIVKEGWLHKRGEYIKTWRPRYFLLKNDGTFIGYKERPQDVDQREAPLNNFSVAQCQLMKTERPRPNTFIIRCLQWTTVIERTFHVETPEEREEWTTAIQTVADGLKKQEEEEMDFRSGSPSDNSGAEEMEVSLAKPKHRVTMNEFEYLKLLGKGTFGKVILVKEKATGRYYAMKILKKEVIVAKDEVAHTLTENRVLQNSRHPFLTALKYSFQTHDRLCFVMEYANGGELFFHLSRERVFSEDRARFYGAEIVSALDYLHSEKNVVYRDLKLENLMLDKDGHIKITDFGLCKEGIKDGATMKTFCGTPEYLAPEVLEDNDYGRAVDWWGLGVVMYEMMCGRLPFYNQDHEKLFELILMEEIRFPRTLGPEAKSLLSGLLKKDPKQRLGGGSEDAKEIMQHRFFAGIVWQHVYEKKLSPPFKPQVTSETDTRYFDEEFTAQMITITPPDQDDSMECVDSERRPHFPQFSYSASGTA
T1 sequence (P31749 whole entry E17K): as the sequence (P31749 whole entry) above, with E17K counted along it

In the case of `Nc1ncccc1-c1nc2ccc(-c3ccccc3)nc2n1-c1ccc(NC[C@H]2CC[C@H](C(=O)O)CC2)nc1` [Compound I-43, (1r,4r)-4-(((5-(2-(2-aminopyridin-3-yl)-5-phenyl-3H-imidazo[4,5-b]pyridin-3-yl)pyridin-2-yl)amino)methyl)cyclohexane-1-carboxylic acid], the IC50 (commonly the concentration that inhibits the measured activity by half) in assay [1] is less than 500 nM; in assay [2], less than 20000 nM.

For the molecule `CC(C)(C(=O)O)C1CCN(Cc2ccc(-n3c(-c4cccnc4N)nc4ccc(-c5ccccc5)nc43)c(F)c2)C1` (stereo not drawn) [Compound I-185], the IC50 in assay [1] is 500 to 2000 nM; in assay [2] it was less than 20000 nM.

For `Cc1cc(C2CN(C[C@H]3CC[C@@H](C(=O)O)CC3)C2)ccc1-n1c(-c2cccnc2N)nc2ccc(-c3ccccc3)cc21` [Compound I-222], the figures for the IC50 in assay [1] and in assay [2] were 500 to 2000 nM and less than 20000 nM, respectively.

With `Nc1ncccc1-c1nc2ccc(-c3ccccc3)nc2n1-c1ccc(C2CN(C(=O)C3CC(=O)CC(=O)C3)C2)cc1` [Compound I-37, 5-(3-(4-(2-(2-aminopyridin-3-yl)-5-phenyl-3H-imidazo[4,5-b]pyridin-3-yl)phenyl)azetidine-1-carbonyl)cyclohexane-1,3-dione], the IC50 is less than 500 nM in assay [1] and less than 20000 nM in assay [2].

In the case of `Nc1ncccc1-c1nc2ccc(-c3ccccc3)nc2n1-c1ccc(CN(CC(F)(F)F)[C@H]2CC[C@@H](C(=O)O)CC2)cc1` (single isomer, unassigned) [Compound I-189, (1s,4s)-4-((4-(2-(2-aminopyridin-3-yl)-5-phenyl-3H-imidazo[4,5-b]pyridin-3-yl)benzyl)(2,2,2-trifluoroethyl)amino)cyclohexane-1-carboxylic acid], the figures for the IC50 in assay [1] and in assay [2] were not below 2000 nM and less than 20000 nM, respectively.

On to `CC(C)C([C@H]1CC[C@H](C(=O)O)CC1)N1CC(c2ccc(-n3c(-c4cccnc4N)nc4ccc(-c5ccccc5)nc43)cc2)C1` (stereo partly drawn) [Compound I-143], for which the IC50 in assay [1] was 500 to 2000 nM; in assay [2] it was less than 20000 nM.

In the case of `Nc1ncccc1-c1nc2ccc(-c3ccccc3)nc2n1-c1ccc(CN2CCC(C(=O)O)CC2)cc1` [Compound I-29, 1-(4-(2-(2-aminopyridin-3-yl)-5-phenyl-3H-imidazo[4,5-b]pyridin-3-yl)benzyl)piperidine-4-carboxylic acid], the values for the IC50 in assay [1] and in assay [2] were 500 to 2000 nM and less than 20000 nM, respectively.

As for `Nc1ncccc1-c1nc2ccc(-c3ccccc3)nc2n1-c1ccc(C2CN(CC3CCC(C(=O)O)CC3)C2)nc1` (stereo not drawn) [Compound I-64, 4-((3-(5-(2-(2-aminopyridin-3-yl)-5-phenyl-3H-imidazo[4,5-b]pyridin-3-yl)pyridin-2-yl)azetidin-1-yl)methyl)cyclohexane-1-carboxylic acid], the values for the IC50 in assay [1] and in assay [2] were not below 2000 nM and less than 20000 nM, respectively.

Take `Nc1ncccc1-c1nc2ccc(C3CCOCC3)cc2n1-c1ccc(NC(=O)[C@H]2CC[C@H](C(=O)O)CC2)cc1` [Compound I-34, (1r,4r)-4-((4-(2-(2-aminopyridin-3-yl)-6-(tetrahydro-2H-pyran-4-yl)-1H-benzo[d]imidazol-1-yl)phenyl)carbamoyl)cyclohexane-1-carboxylic acid]: the IC50 in assay [1] was not below 2000 nM; in assay [2], less than 20000 nM.

Regarding `Nc1ncccc1-c1nc2ccc(-c3ccccc3)nc2n1-c1ccc(C2CN(C[C@H]3CC[C@H](C(=O)O)CC3)C2)cc1` [Compound I-57, (1r,4r)-4-((3-(4-(2-(2-aminopyridin-3-yl)-5-phenyl-3H-imidazo[4,5-b]pyridin-3-yl)phenyl)azetidin-1-yl)methyl)cyclohexane-1-carboxylic acid], the IC50 in assay [1] is less than 500 nM; in assay [2], less than 20000 nM.

As to `Nc1ncccc1-c1nc2ccc(-n3cccn3)nc2n1-c1ccc(NC(=O)[C@H]2CC[C@H](C(=O)O)CC2)nc1` [Compound I-41, (1r,4r)-4-((5-(2-(2-aminopyridin-3-yl)-5-(1H-pyrazol-1-yl)-3H-imidazo[4,5-b]pyridin-3-yl)pyridin-2-yl)carbamoyl)cyclohexane-1-carboxylic acid], the IC50 in assay [1] is less than 500 nM; in assay [2], less than 20000 nM.

Take `Nc1ncccc1-c1nc2ccc(-c3ccccc3)nc2n1-c1ccc(NC(=O)[C@H]2CC[C@H](C(=O)O)CC2)cc1` [Compound I-2]: the IC50 in assay [1] was less than 500 nM; in assay [2] it was less than 20000 nM.

For the molecule `Nc1ncccc1-c1nc2ccc(-c3ccccc3)nc2n1-c1ccc(NC(=O)C2CCC(C(=O)O)C2)nc1` (stereo not drawn) [Compound I-8, 3-((5-(2-(2-aminopyridin-3-yl)-5-phenyl-3H-imidazo[4,5-b]pyridin-3-yl)pyridin-2-yl)carbamoyl)cyclopentane-1-carboxylic acid], the IC50 in assay [1] was 500 to 2000 nM; in assay [2] it was less than 20000 nM.

Turning to `Nc1ncccc1-c1nc2ccc(-c3ccccc3)nc2n1-c1ccc(NC(=O)C2CCCC(C(=O)O)C2)cc1` (stereo not drawn) [Compound I-4, 3-[[4-[2-(2-amino-3-pyridyl)-5-phenyl-imidazo[4,5-b]pyridin-3-yl]phenyl]carbamoyl]cyclohexanecarboxylic acid], the IC50 in assay [1] is less than 500 nM; in assay [2] it was less than 20000 nM.

As for `CC(C)N(Cc1ccc(-n2c(-c3cccnc3N)nc3ccc(-c4ccccc4)nc32)cc1)[C@H]1CC[C@H](C(=O)O)CC1` [Compound I-168], the IC50 in assay [1] was not below 2000 nM; in assay [2], less than 20000 nM.

`Cc1nc(NC(=O)[C@H]2CC[C@H](C(=O)O)CC2)ccc1-n1c(-c2cccnc2N)nc2ccc(-c3ccc(F)cc3)nc21` [Compound I-215]: the IC50 in assay [1] is 500 to 2000 nM; in assay [2] it was less than 20000 nM.

Consider `Nc1ncccc1-c1nc2ccc(-c3ccccc3)nc2n1-c1ccc(N[C@H]2CC[C@H](C(=O)O)CC2)nc1` (single isomer, unassigned) [Compound I-14, (1r,4r)-4-((5-(2-(2-aminopyridin-3-yl)-5-phenyl-3H-imidazo[4,5-b]pyridin-3-yl)pyridin-2-yl)amino)cyclohexane-1-carboxylic acid], for which the IC50 was not below 2000 nM in assay [1] and less than 20000 nM in assay [2].

On to `Cc1cc(C2CN(CC3CC4(C3)CC(C(=O)O)C4)C2)ccc1-n1c(-c2cccnc2N)nc2ccc(-c3ccccc3)cc21` (stereo not drawn) [Compound I-224], for which the IC50 in assay [1] was not below 2000 nM; in assay [2] it was less than 20000 nM.

As to `Nc1ncccc1-c1nc2ccc(-c3ccccc3)nc2n1-c1ccc(C2CCCN(CC3CCC(C(=O)O)CC3)C2)cc1` (stereo not drawn) [Compound I-77, 4-((3-(4-(2-(2-aminopyridin-3-yl)-5-phenyl-3H-imidazo[4,5-b]pyridin-3-yl)phenyl)piperidin-1-yl)methyl)cyclohexane-1-carboxylic acid], the figures for the IC50 in assay [1] and in assay [2] were not below 2000 nM and less than 20000 nM, respectively.

`Nc1ncccc1-c1nc2ccc(C3CCCCC3)nc2n1-c1ccc(NC(=O)[C@H]2CC[C@H](C(=O)O)CC2)nc1` [Compound I-119, (1r,4r)-4-((5-(2-(2-aminopyridin-3-yl)-5-cyclohexyl-3H-imidazo[4,5-b]pyridin-3-yl)pyridin-2-yl)carbamoyl)cyclohexane-1-carboxylic acid]: the IC50 in assay [1] is 500 to 2000 nM; in assay [2], less than 20000 nM.

Consider `CN(Cc1ccc(-n2c(-c3cccnc3N)nc3ccc(-c4ccccc4)nc32)c(F)c1)C12CCC(C(=O)O)(CC1)CC2` [Compound I-161], for which the values for the IC50 in assay [1] and in assay [2] were less than 500 nM and less than 20000 nM, respectively.

Regarding `CC(NC1CCC(C(=O)O)C1)c1ccc(-n2c(-c3cccnc3N)nc3ccc(-c4ccccc4)nc32)cc1F` (stereo not drawn) [Compound I-81, 3-((1-(4-(2-(2-aminopyridin-3-yl)-5-phenyl-3H-imidazo[4,5-b]pyridin-3-yl)-2-fluorophenyl)ethyl)amino)cyclopentane-1-carboxylic acid], the IC50 in assay [1] was not below 2000 nM; in assay [2], less than 20000 nM.

With `CC(C)(C(=O)O)C1CCN(Cc2ccc(-n3c(-c4cccnc4N)nc4ccc(-c5ccccc5)nc43)cc2)C1` (stereo not drawn) [Compound I-105, 2-[1-[[4-[2-(2-amino-3-pyridyl)-5-phenyl-imidazo[4,5-b]pyridin-3-yl]phenyl]methyl]pyrrolidin-3-yl]-2-methyl-propanoic acid], the values for the IC50 in assay [1] and in assay [2] were 500 to 2000 nM and less than 20000 nM, respectively.

Turning to `Nc1ncccc1-c1nc2ccc(-c3ccccc3F)nc2n1-c1ccc([C@H]2CCN(C[C@H]3CC[C@@H](C(=O)O)CC3)C2)cc1` (single isomer, unassigned) [Compound I-228], the IC50 in assay [1] is 500 to 2000 nM; in assay [2], less than 20000 nM.

For the molecule `Nc1ncccc1-c1nc2ccc(-c3ccccc3)nc2n1-c1ccc(NC(=O)N2CCC(C(=O)O)CC2)cc1` [Compound I-53, 1-[[4-[2-(2-amino-3-pyridyl)-5-phenyl-imidazo[4,5-b]pyridin-3-yl]phenyl]carbamoyl]piperidine-4-carboxylic acid], the IC50 in assay [1] was less than 500 nM; in assay [2] it was less than 20000 nM.

As to `Nc1ncccc1-c1nc2ccc(-c3ccccc3)nc2n1-c1ccc(C(=O)N2CCC(C(=O)O)CC2)cc1` [Compound I-20, 1-(4-(2-(2-aminopyridin-3-yl)-5-phenyl-3H-imidazo[4,5-b]pyridin-3-yl)benzoyl)piperidine-4-carboxylic acid], the IC50 was not below 2000 nM in assay [1] and less than 20000 nM in assay [2].

`Nc1ncccc1-c1nc2ccc(-c3ccccc3)nc2n1-c1ccc(C2CN(C[C@H]3CC4CC3CC4C(=O)O)C2)cc1` (stereo partly drawn) [Compound I-149]: the results for the IC50 in assay [1] and in assay [2] were less than 500 nM and less than 20000 nM, respectively.

Values taken from patent publication US20260200920A1, “SUBSTITUTED AMINOPYRIDINE COMPOUNDS FOR USE AS AKT1 INHIBITORS” (Atavistik Bio, Inc., priority 2023, published 2026).
